Source: patent US7109243B2 (IRM LLC, priority 2003, dated 2006)

What was measured:
Cathepsin S = Cathepsin S (Homo sapiens, UniProt P25774); experiment: Cathepsin S inhibition assay (fluorogenic peptide substrate); type: biochemical; conditions: Table II, compounds of Formula I; read-out: Ki Cat. S
Description: “Inhibition constant”, Ki, is the dissociation constant of the enzyme-inhibitor complex, or the reciprocal of the binding affinity of the inhibitor to the enzyme. […] The inhibited rates are then fit by nonlinear regression to the following equation: […]
The assumption being made for the classical inhibition described above is that the free inhibitor concentration is equal to the total inhibitor concentration.
Kinetic measurements are performed in a total reaction volume of 30 μl in 384-well microtiter plates. […] The reactions are initiated by adding the substrate, acetyl-histidine-proline-valine-lysine-amino carbamoyl coumarin, to a final concentration of 50 μM. The rate of substrate hydrolysis is measured by monitoring the increase in fluorescence at an excitation wavelength of 380 nm and an emission wavelength of 450 nm that results from cleavage of the aniline bond in the substrate by the enzyme.

Cathepsin K = molecular target: T1, Cathepsin K (Homo sapiens, UniProt P43235); experiment: Cathepsin K inhibition assay (fluorogenic peptide substrate); selectivity ratio vs cathepsin S; type: biochemical; conditions: ratio of cathepsin K inhibition constant to cathepsin S inhibition constant; Table II
T1 sequence (P43235 115-329): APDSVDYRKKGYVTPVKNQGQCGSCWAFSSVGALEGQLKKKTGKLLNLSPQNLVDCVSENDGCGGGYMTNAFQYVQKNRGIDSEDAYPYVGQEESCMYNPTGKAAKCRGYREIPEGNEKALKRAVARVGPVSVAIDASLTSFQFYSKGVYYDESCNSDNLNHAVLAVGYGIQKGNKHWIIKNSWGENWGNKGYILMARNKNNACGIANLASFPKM
Description: The optimal substrate for cathepsin K, acetyl-lysine-histidine-proline-lysine-amino carbamoyl coumarin, was identified from screening a combinatorial library of fluorogenic peptide substrates (Harris, J. L., B. J. Backes, et al., Proc Natl Acad Sci USA 2000, 97(14), 7754-9). Kinetic measurements are performed in a total reaction volume of 30 μl in 384-well microtiter plates. […] The reactions are initiated by adding the substrate, acetyl-lysine-histidine-proline-lysine-amino carbamoyl coumarin, to a final concentration of 40 μM. The rate of substrate hydrolysis is measured by monitoring the increase in fluorescence at an excitation wavelength of 380 nm and an emission wavelength of 450 nm that results from cleavage of the aniline bond in the substrate by the enzyme. The apparent inhibition constants for the compounds are determined from the enzyme progress curves ([…]. Elrod, et al., Anal Biochem 2000, 286(1), 45-50) and are then used to calculate the inhibition constants for competitive inhibitors. Selectivity for cathepsin S in the presence of cathepsin isozymes was determined by the ratio of the cathepsin isozyme inhibition constant of a compound of the present invention to the cathepsin S inhibition constant of the same compound.

Chain of Cathepsin S (P25774 115-331, species assumed): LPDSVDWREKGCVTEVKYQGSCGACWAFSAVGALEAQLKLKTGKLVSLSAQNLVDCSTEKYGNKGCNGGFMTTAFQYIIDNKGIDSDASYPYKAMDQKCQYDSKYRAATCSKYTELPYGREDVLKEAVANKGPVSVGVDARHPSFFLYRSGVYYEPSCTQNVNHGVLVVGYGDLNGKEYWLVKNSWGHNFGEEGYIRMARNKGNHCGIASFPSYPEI

| Compound | Ki (Cathepsin S) | Selectivity for Cat. S over Cat. K (Cathepsin K) |
| --- | --- | --- |
| COc1ccccc1-c1ccc(C(=O)N[C@@H](CC2CCCCC2)C(=O)NCCNc2ccc(OC(F)(F)F)cc2)o1 [Compound 210, (S)-5-(2-Methoxy-phenyl)-furan-2-carboxylic acid {2-cyclohexyl-1-[2-(4-trifluoromethoxy-phenylamino)-ethylcarbamoyl]-ethyl}-amide] | < 100 nM | ++ (++, >100) |
| CS(=O)(=O)Nc1ccc(C(=O)N[C@@H](CC2CCCCC2)C(=O)NCCNc2ccc(F)cc2)cc1 [Compound 299, N-(S)-{2-cyclohexyl-1-[2-(4-fluoro-phenylamino)-ethylcarbamoyl]-ethyl}-4-methanesulfonylamino-benzamide] | < 100 nM | + (+, >10) |
| COc1ccc(NCCNC(=O)[C@H](CC2CCCCC2)NC(=O)c2cccc(N(C)C)c2)cc1 [Compound 119, (S)-N-{2-Cyclohexyl-1-[2-(4-methoxy-phenylamino)-ethylcarbamoyl]-ethyl}-3-dimethylamino-benzamide] | < 100 nM | + (+, >10) |
| COc1ccc(NCCNC(=O)[C@H](Cc2ccccc2)NC(=O)c2cc(C)c(OC)c(C)c2)cc1 [Compound 21, (S)-4-Methoxy-N-{1-[2-(4-methoxy-phenylamino)-ethylcarbamoyl]-2-phenyl-ethyl}-3,5-dimethyl-benzamide] | < 100 nM | + (+, >10) |
| COc1ccc(NCCNC(=O)[C@H](Cc2ccc(Oc3ccc(Cl)c(Cl)c3)cc2)NC(=O)c2cccc(C)c2)cc1 [Compound 98, (S)-N-{2-[4-(3,4-Dichloro-phenoxy)-phenyl]-1-[2-(4-methoxy-phenylamino)-ethylcarbamoyl]-ethyl}-3-methyl-benzamide] | < 1000 nM | ++ (++, >100) |
| O=C(N[C@@H](CC1CCCCC1)C(=O)NCCNc1ccc(OC(F)(F)F)cc1)C1CC(=O)N(Cc2ccco2)C1 (stereo partly drawn) [Compound 39, 1-Furan-2-ylmethyl-5-oxo-pyrrolidine-3-carboxylic acid (S)-{2-cyclohexyl-1-[2-(4-trifluoromethoxy-phenylamino)-ethylcarbamoyl]-ethyl}-amide] | < 1000 nM | ++ (++, >100) |
| COc1ccc(NCCNC(=O)[C@H](Cc2ccccc2)NC(=O)c2cccc(-c3csc(C)n3)c2)cc1 [Compound 56, (S)-N-{1-[2-(4-Methoxy-phenylamino)-ethylcarbamoyl]-2-phenyl-ethyl}-3-(2-methyl-thiazol-4-yl)-benzamide] | < 1000 nM | ++ (++, >100) |
| COc1ccc(NCCNC(=O)[C@H](CCC2CCCCC2)NC(=O)c2cccc(C#N)c2)cc1 [Compound 139, (S)-3-Cyano-N-{3-cyclohexyl-1-[2-(4-methoxy-phenylamino)-ethylcarbamoyl]-propyl}-benzamide] | < 100 nM | +++ (+++, >1000) |
| COc1ccc(NCCNC(=O)[C@H](CC2CCCCC2)NC(=O)c2cc(-c3ccc(OC)cc3)cs2)cc1 [Compound 191, (S)-4-(4-Methoxy-phenyl)-thiophene-2-carboxylic acid {2-cyclohexyl-1-[2-(4-methoxy-phenylamino)-ethylcarbamoyl]-ethyl}-amide] | < 100 nM | + (+, >10) |
| COc1ccc(NCCNC(=O)[C@H](Cc2ccccc2)NC(=O)Nc2c(C)cccc2C(C)(C)C)cc1 [Compound 102, (S)-2-[3-(2-tert-Butyl-6-methyl-phenyl)-ureido]-N-[2-(4-methoxy-phenylamino)-ethyl]-3-phenyl-propionamide] | < 100 nM | ++ (++, >100) |
| COc1ccc(NCCNC(=O)[C@H](COCc2ccccc2)NC(=O)c2cccc(C)c2)cc1 [Compound 254, (S)-N-{2-Benzyloxy-1-[2-(4-methoxy-phenylamino)-ethylcarbamoyl]-ethyl}-3-methyl-benzamide] | < 1000 nM | ++ (++, >100) |
| COc1ccc(NCCNC(=O)[C@H](CC2CCCCC2)NC(=O)c2cnn(-c3ccc(Cl)cc3)c2C(F)(F)F)cc1 [Compound 116, (S)-1-(4-Chloro-phenyl)-5-trifluoromethyl-1H-pyrazole-4-carboxylic acid {2-cyclohexyl-1-[2-(4-methoxy-phenylamino)-ethylcarbamoyl]-ethyl}-amide] | < 100 nM | +++ (+++, >1000) |
| COc1ccc(NCCNC(=O)[C@H](Cc2ccc(F)c(F)c2)NC(=O)c2cccc(C)c2)cc1 [Compound 237, (S)-N-{2-(3,4-Difluoro-phenyl)-1-[2-(4-methoxy-phenylamino)-ethylcarbamoyl]-ethyl}-3-methyl-benzamide] | < 100 nM | +++ (+++, >1000) |
| COc1ccc(NCCNC(=O)[C@H](Cc2ccccc2)NC(=O)c2cnn(-c3ccc(Cl)cc3)c2C(F)(F)F)cc1 [Compound 44, (S)-1-(4-Chloro-phenyl)-5-trifluoromethyl-1H-pyrazole-4-carboxylic acid {1-[2-(4-methoxy-phenylamino)-ethylcarbamoyl]-2-phenyl-ethyl}-amide] | < 1000 nM | ++ (++, >100) |
| COc1ccc(NCCNC(=O)[C@H](Cc2ccc(-c3ccc(Cl)cc3)cc2)NC(=O)c2cccc(C)c2)cc1 [Compound 278, (S)-N-{2-(4′-Chloro-biphenyl-4-yl)-1-[2-(4-methoxy-phenylamino)-ethylcarbamoyl]-ethyl}-3-methyl-benzamide] | < 1000 nM | ++ (++, >100) |
| O=C(N[C@@H](CC1CCCCC1)C(=O)NCCNc1ccc(OC(F)(F)F)cc1)c1ccc(-c2ccccc2)s1 [Compound 62, 5-Phenyl-thiophene-2-carboxylic acid (S)-{2-cyclohexyl-1-[2-(4-trifluoromethoxy-phenylamino)-ethylcarbamoyl]-ethyl}-amide] | < 100 nM | ++ (++, >100) |
| COc1ccc(NCCNC(=O)[C@H](Cc2cccc3ccccc23)NC(=O)c2cccc(C)c2)cc1 [Compound 258, (S)-N-{1-[2-(4-Methoxy-phenylamino)-ethylcarbamoyl]-2-naphthalen-1-yl-ethyl}-3-methyl-benzamide] | < 100 nM | +++ (+++, >1000) |
| O=C(NCCNc1ccc(F)cc1)[C@H](CC1CCCCC1)NC(=O)[C@H](O)c1ccccc1 [Compound 317, 3-Cyclohexyl-N-[2-(4-fluoro-phenylamino)-ethyl]-2-(S)-(2-(R)-hydroxy-2-phenyl-acetylamino)-propionamide] | < 100 nM | ++ (++, >100) |
| N#Cc1ccc(C(=O)N[C@@H](CC2CCCCC2)C(=O)NCCNc2ccc(F)cc2)cc1 [Compound 316, 4-Cyano-N-(S)-{2-cyclohexyl-1-[2-(4-fluoro-phenylamino)-ethylcarbamoyl]-ethyl}-benzamide] | < 100 nM | ++ (++, >100) |
| O=C(N[C@@H](CC1CCCCC1)C(=O)NCCNc1ccc(OC(F)(F)F)cc1)c1ccc(OC(F)F)cc1 [Compound 60, N-(S)-{2-cyclohexyl-1-[2-(4-trifluoromethoxy-phenylamino)-ethylcarbamoyl]-ethyl}-4-difluoromethoxy-benzamide] | < 100 nM | + (+, >10) |
| COc1ccc(NCCNC(=O)[C@H](CC2CCCCC2)NC(=O)c2cccc(-c3ccc(Cl)cc3)c2)cc1 [Compound 175, (S)-4′-Chloro-biphenyl-3-carboxylic acid {2-cyclohexyl-1-[2-(4-methoxy-phenylamino)-ethylcarbamoyl]-ethyl}-amide] | < 100 nM | +++ (+++, >1000) |
| COc1ccc(NCCNC(=O)[C@H](Cc2ccc(-c3ccsc3)cc2)NC(=O)c2cccc(C)c2)cc1 [Compound 275, (S)-N-[1-[2-(4-Methoxy-phenylamino)-ethylcarbamoyl]-2-(4-thiophen-3-yl-phenyl)-ethyl]-3-methyl-benzamide] | < 100 nM | +++ (+++, >1000) |
| COc1ccc(NCCNC(=O)[C@H](CCC2CCCCC2)NC(=O)c2cccc(OC(F)(F)F)c2)cc1 [Compound 138, (S)-N-{3-Cyclohexyl-1-[2-(4-methoxy-phenylamino)-ethylcarbamoyl]-propyl}-3-trifluoromethoxy-benzamide] | < 100 nM | +++ (+++, >1000) |
| (S)-3-Bromo-N-{1-[2-(4-methoxy-phenylamino)-ethylcarbamoyl]-2-phenyl-ethyl}-4-methyl-benzamide [Compound 24] |  | + (+, >10) |
